Values after ≈ are worked out from the molar mass of the structure shown. Active and inactive are the calls of the source. The calls are words filed in the database; no cut-off is given here.
Tests used:
[1] = system: HepG2; assay: cells; details: Homo sapiens, HepG2, 72 h
Description: Antiproliferative activity against human HepG2 cells assessed as reduction in cell viability after 72 hrs by MTT assay

[2] = system: A549; assay: cells; details: Homo sapiens, A549, 72 h
Description: Antiproliferative activity against human A549 cells assessed as reduction in cell viability after 72 hrs by MTT assay

[3] = system: HCT-116; assay: cells; details: Homo sapiens, HCT-116, 72 h
Description: Antiproliferative activity against human HCT116 cells assessed as reduction in cell viability after 72 hrs by MTT assay

[4] = system: MV4-11; assay: cells; details: Homo sapiens, MV4-11, 72 h
Description: Antiproliferative activity against human MV4-11 cells assessed as reduction in cell viability after 72 hrs by MTT assay

[5] = biological target: CDK9/cyclin T1 (Homo sapiens, UniProt P50750)
CDK9/cyclin T1, sequence (O60563 whole entry): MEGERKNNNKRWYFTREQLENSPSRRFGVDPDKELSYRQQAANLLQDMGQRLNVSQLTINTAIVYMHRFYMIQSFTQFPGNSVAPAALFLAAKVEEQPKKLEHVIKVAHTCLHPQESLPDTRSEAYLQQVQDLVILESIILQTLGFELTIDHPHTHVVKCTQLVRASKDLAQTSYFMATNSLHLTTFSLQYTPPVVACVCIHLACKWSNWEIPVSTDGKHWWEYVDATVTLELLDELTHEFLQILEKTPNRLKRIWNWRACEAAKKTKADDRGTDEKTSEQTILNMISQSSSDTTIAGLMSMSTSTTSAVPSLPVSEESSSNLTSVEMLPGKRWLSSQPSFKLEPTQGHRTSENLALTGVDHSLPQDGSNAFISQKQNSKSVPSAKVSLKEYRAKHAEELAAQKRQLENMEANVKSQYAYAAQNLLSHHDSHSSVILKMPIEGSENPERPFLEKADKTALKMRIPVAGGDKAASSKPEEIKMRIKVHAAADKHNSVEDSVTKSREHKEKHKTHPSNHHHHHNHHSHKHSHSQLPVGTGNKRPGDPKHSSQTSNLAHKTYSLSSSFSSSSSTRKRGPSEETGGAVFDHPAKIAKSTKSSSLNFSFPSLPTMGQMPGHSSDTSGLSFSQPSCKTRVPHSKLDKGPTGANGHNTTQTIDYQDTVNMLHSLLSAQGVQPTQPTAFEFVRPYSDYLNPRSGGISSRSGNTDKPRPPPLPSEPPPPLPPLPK
CDK9/cyclin T1, sequence (P50750 whole entry): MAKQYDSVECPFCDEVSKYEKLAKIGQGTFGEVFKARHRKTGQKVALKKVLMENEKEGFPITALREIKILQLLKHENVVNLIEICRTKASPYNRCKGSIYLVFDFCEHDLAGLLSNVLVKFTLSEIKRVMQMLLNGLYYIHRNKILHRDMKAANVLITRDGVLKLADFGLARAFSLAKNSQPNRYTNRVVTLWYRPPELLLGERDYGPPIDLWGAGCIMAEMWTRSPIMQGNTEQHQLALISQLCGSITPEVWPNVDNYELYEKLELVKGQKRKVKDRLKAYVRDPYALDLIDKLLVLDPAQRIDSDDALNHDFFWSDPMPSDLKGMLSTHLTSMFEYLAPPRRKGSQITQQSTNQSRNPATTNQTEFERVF

[6] = biological target: CDK2/Cyclin A2 (Homo sapiens, UniProt P24941)
Description: (§1) Inhibition of human CDK2/cyclin-A2 using H1 histone as substrate after 2 hrs by [gamma-33P]-ATP assay

[7] = biological target: CDK2/Cyclin A2 (Homo sapiens, UniProt P24941+P20248)
Description: as §1

[8] = system: MV4-11; assay: Antitumor activity against human MV4-11 cells xenografted in BALB/c mouse assessed as reduction in tumour growth at 5 mg/kg, iv administered every other day for 21 days; type: functional, organism-based
[9] = physchem; details: methanesulfonic acid buffer, pH 4.5
Description: Solubility of compound in methanesulfonic acid buffer at pH 4.5

[10] = physchem
Description: Intrinsic solubility of compound by potentiometric titration assay

[11] = physchem; details: buffer, pH 7.4
Description: Hydrophobicity, log D of compound at pH 7.4

| SMILES | IC50 [1] | other results |
| --- | --- | --- |
| CN1CCC(Oc2c(O)cc(O)c3c(=O)cc(-c4ccc(N5CCNCC5)cc4)oc23)CC1 | 39.4 µM | – |
| Cc1n[nH]c(C)c1Oc1c(O)cc(O)c2c(=O)cc(-c3ccc(N4CCN(C)CC4)cc3)oc12 | 6.3 µM | IC50 [2]: 2.5 µM; IC50 [3]: 3.3 µM; IC50 [4]: 2.2 µM; IC50 [5]: 0.0127 µM; IC50 [6]: 0.83 µM |
| COc1c(O)cc(O)c2c(=O)cc(-c3cccc(Br)c3)oc12 | 38.2 µM | – |
| COc1c(O)cc(O)c2c(=O)cc(-c3cccc(N4CCOCC4)c3)oc12 | > 100 µM | – |
| CC(C)Oc1c(O)cc(O)c2c(=O)cc(-c3ccc(N4CCN(C)CC4)cc3)oc12 | 14.8 µM | IC50 [2]: 4.1 µM; IC50 [7]: Not Active; IC50 [3]: 12.8 µM; IC50 [4]: 6.3 µM; IC50 [5]: 0.179 µM |
| COc1c(O)cc(O)c2c(=O)cc(-c3ccc(N4CCOCC4)cc3)oc12 | 78.3 µM | – |
| COc1c(O)cc(O)c2c(=O)cc(-c3ccc(N4CCCNCC4)cc3)oc12 | 18.2 µM | – |
| COc1c(O)cc(O)c2c(=O)cc(-c3ccccc3C(F)(F)F)oc12 | > 100 µM | – |
| COc1c(O)cc(O)c2c(=O)cc(-c3ccc(N4CCN(C)CC4)cc3)oc12 | 6.6 µM | – |
| CN1CCN(c2ccc(-c3cc(=O)c4c(O)cc(O)c(OC5CCCC5)c4o3)cc2)CC1 | 15.8 µM | – |
| O=c1cc(-c2ccc(N3CCNCC3)cc2)oc2c(OC3CCCCC3)c(O)cc(O)c12 | 22.8 µM | – |
| COc1c(O)cc(O)c2c(=O)cc(-c3cccc(N4CCCNCC4)c3)oc12 | 21.7 µM | – |
| CCN(CC)c1ccc(-c2cc(=O)c3c(O)cc(O)c(OC)c3o2)cc1 | 6.4 µM | – |
| COc1c(O)cc(O)c2c(=O)cc(-c3ccc(N4CCNCC4)cc3)oc12 | 17.9 µM | – |
| COc1cccc2c1C(=O)c1c(O)c3c(c(O)c1C2=O)C[C@@](O)(C(=O)CO)C[C@@H]3O[C@H]1C[C@H](N)[C@H](O)[C@H](C)O1 | – | inhibition [8]: Active |
| O=c1cc(-c2ccc(N3CCNCC3)cc2)oc2c(OC3CCNC3)c(O)cc(O)c12 (stereo not given) | > 100 µM | – |

| SMILES | IC50 [1] | other results |
| --- | --- | --- |
| COc1c(O)cc(O)c2c(=O)cc(-c3ccc(N4CCCC4)cc3)oc12 | > 100 µM | – |
| COc1c(O)cc(O)c2c(=O)cc(-c3cccc(C(F)(F)F)c3)oc12 | > 100 µM | – |
| CN1CCC(Oc2c(O)cc(O)c3c(=O)cc(-c4ccc(N5CCN(C)CC5)cc4)oc23)CC1 | 6.7 µM | – |
| CN1CCN(c2ccc(-c3cc(=O)c4c(O)cc(O)c(Oc5c[nH][nH]c5=O)c4o3)cc2)CC1 | 8.1 µM | – |
| Cc1n[nH]c(C)c1Oc1c(O)cc(O)c2c(=O)cc(-c3ccc(N4CCNCC4)cc3)oc12 | 8.5 µM | IC50 [2]: 5.5 µM; IC50 [3]: 4.8 µM; solubility [9]: 30 µg/mL (≈ 66.9 µM); solubility [10]: 1 µg/mL (≈ 2.23 µM); IC50 [4]: 4.4 µM; logD [11]: 2.91; IC50 [5]: 0.0108 µM; IC50 [6]: 1.04 µM |
| CN1CCN(c2ccc(-c3cc(=O)c4c(O)cc(O)c(OCc5ccco5)c4o3)cc2)CC1 | 7 µM | – |
| CC(C)Oc1c(O)cc(O)c2c(=O)cc(-c3ccc(N4CCNCC4)cc3)oc12 | 18 µM | IC50 [2]: 5.5 µM; IC50 [7]: Not Active; IC50 [3]: 3.4 µM; IC50 [4]: 6.1 µM; IC50 [5]: 0.0941 µM |
| CN1CCN(c2ccc(-c3cc(=O)c4c(O)cc(O)c(OC5CCNC5)c4o3)cc2)CC1 (stereo not given) | > 100 µM | – |
| O=c1cc(-c2ccc(N3CCNCC3)cc2)oc2c(OCc3ccco3)c(O)cc(O)c12 | 8.3 µM | – |
| COc1c(O)cc(O)c2c(=O)cc(-c3ccccc3Cl)oc12 | > 100 µM | – |
| COc1c(O)cc(O)c2c(=O)cc(-c3ccccc3Br)oc12 | 33.5 µM | – |
| O=c1cc(-c2ccc(N3CCNCC3)cc2)oc2c(OC3CCCC3)c(O)cc(O)c12 | 5.3 µM | – |
| COc1c(O)cc(O)c2c(=O)cc(-c3cccc(N4CCN(C)CC4)c3)oc12 | 13.1 µM | – |
| CN1CCN(c2ccc(-c3cc(=O)c4c(O)cc(O)c(OC5CCCCC5)c4o3)cc2)CC1 | 27.8 µM | – |
| COc1c(O)cc(O)c2c(=O)cc(-c3cccc(N4CCNCC4)c3)oc12 | 9.9 µM | – |
| COc1c(O)cc(O)c2c(=O)cc(-c3ccc([N+](=O)[O-])cc3)oc12 | > 100 µM | – |
